Entries after “also recorded” stand apart in the source; their conditions may differ.
What was measured:
advanced solid tumors = experiment: Phase I study, infusion up to six hours: response by RECIST, disease stabilization; assay type: in vivo, human
Protocol: (§1) Eligible patients with advanced solid tumors received Compound A in successive dose cohorts at: 10, 20, 40, 80, 160, 240, 360 and 480 mg/m^2. Drug is administered by daily intravenous infusion on the first five consecutive days of a three week cycle and the infusion duration has varied from one hour to six hours. Response by RECIST is determined after every 2 cycles.

[1] = Phase I study: pharmacokinetics in plasma, whole blood and urine of patients; assay type: in vivo, human
Description: Analysis has determined that Compound A whole blood concentration is nearly ten times that of plasma concentration. The reversible binding and subsequent slow release of Compound A from blood cells provides a “reservoir” effect to extend the Compound A plasma terminal half life. Further details of these observations are described in an Example that follows. This pharmacokinetic property allows consideration of a less frequent dosing schedule, and a phase I study of weekly intravenous Compound A administration is being implemented.
Pharmacokinetic analyses of plasma samples collected on Day 1 and Day 5 of dosing for every patient were performed in cohort batches during the conduct of the phase I study of Compound A in refractory solid tumors and lymphomas (Protocol C3-05-001). […] Saturation of elimination was an unlikely cause of the extended half life because there was no apparent accumulation of drug in plasma.
The pharmacokinetic sampling procedure in the phase I clinical trial was amended to allow for whole blood and plasma to be collected from study patients. When these samples were analyzed, the binding of Compound A to blood cells was again evident.

human blood cells [2] = experiment: Wash off of bound drug from blood cells with fresh plasma; assay type: in vitro ADME; settings: one, two and four washes
Protocol: (§2) To test if this binding also occurs with human blood cells, an in vitro experiment was conducted with human whole blood spiked with Compound A concentrations of 1, 5, 10, and 50 μM. […] Results of the analysis of whole blood and plasma are illustrated in FIG. 7. The permanence of the binding was studied by attempting to “wash off” bound drug with fresh plasma. […] This reversible binding to blood cells is the reason for the observed extended plasma terminal half life. The ability of fresh plasma to wash off Compound A from blood cells after one, two and four washes is illustrated in FIGS. 8, 9, and 10, respectively.

[3] = Phase I study, one or two hour infusion: plasma pharmacokinetics; assay type: in vivo, human
Protocol: The objectives of the study described hereafter are to determine the maximum tolerated dose (MTD) and dose limiting toxicities (DLTs), to establish the pharmacokinetics (PKs), and to determine the recommended dose for further clinical development of Compound A.
(§3) Eligible patients with advanced solid tumors or lymphomas whose tumors had progressed on, or for whom there are no standard therapies, receive Compound A in successive dose cohorts at: 10, 20, 40, 80 and 160 mg/m^2. Dosing is by one or two hour intravenous infusion daily for five consecutive days repeated on a three week cycle. […] Response by RECIST is determined after every 2 cycles.

[4] = system: patients with advanced solid tumors; experiment: Phase I study, daily intravenous infusion (one to six hours) on first five days of a three week cycle: adverse events, DLT, MTD; assay type: in vivo
Description: Compound A is designed to inhibit over-expressed ribosomal RNA synthesis in cancer cells by disrupting an essential protein-rDNA quadruplex complex thereby inducing selective apoptosis. A Phase I clinical trial for Compound A has been undertaken to determine the dose limiting toxicities (DLTs), maximum tolerated dose (MTD) and pharmacokinetics (PK) of this agent with administration by infusion for about six hours per day.
as §1

xenograft tumor = experiment: Xenograft tumor growth models (preclinical); assay type: in vivo
malignant cells = experiment: Apoptosis in malignant cells in vitro; assay type: cell-based
Drug resistance in vitro = assay type: cell-based
[5] = system: advanced solid tumors or lymphomas; experiment: Phase I study, one or two hour infusion: response by RECIST, disease stabilization; assay type: in vivo, human
Protocol: as §3

[6] = system: protein-rDNA quadruplex interaction; experiment: Inhibition of rRNA biogenesis in cancer cells; assay type: cell-based
human blood cells [7] = experiment: Human whole blood spiked with Compound A in vitro: binding to blood cells; assay type: in vitro ADME
Protocol: as §2

[8] = system: patients with advanced solid tumors or lymphomas; experiment: Phase I study, one or two hour intravenous infusion daily for five consecutive days on a three week cycle: adverse events, DLT, MTD; assay type: in vivo
Protocol: Dosing is by one or two hour intravenous infusion daily for five consecutive days repeated on a three week cycle. […] Response by RECIST is determined after every 2 cycles.

## CN1CCCC1CCNC(=O)c1cn2c3c(c(N4CCC(c5cnccn5)C4)c(F)cc3c1=O)Oc1cc3ccccc3cc1-2 (stereo not drawn) [Compound A]
Advanced solid tumors; 10 mg/m^2, one patient with prostate cancer
  duration of stable disease: six
Advanced solid tumors; 160 mg/m^2 (internal dose escalation from 80 mg/m2), one patient with anorectal cancer
  duration of stable disease: twelve
Advanced solid tumors; 160 mg/m^2, one patient with liposarcoma
  duration of stable disease: six
Advanced solid tumors; 240 mg/m^2 (internal dose escalation from 40 mg/m^2), one patient with neuroendocrine islet cell cancer of the pancreas
  cycles completed, patient remains on-study: 26 cycles
Advanced solid tumors; 42 patients, 10-480 mg/m^2
  patients with stable disease for longer than four months: Four
Advanced solid tumors; 42 patients, continuing on study
  patients with disease stabilization for longer than one year: one
[1]; calculated from a 12-hour quantitative urine collection
  urinary clearance rate: 10 % of the glomerular filtration rate
[1]; patients, Day 5 vs Day 1 and dose escalation
  plasma terminal half life, trend: increase with repeated dosing and with each dose level escalation
[1]; patients, comparing Day 1 and Day 5
  saturability of blood cell binding: did not appear to be saturable
[1]; patients, on Day 1 and on Day 5
  whole blood concentration relative to plasma concentration: approximately ten
[1]; patients, repeated dosing
  accumulation in plasma concentration: without significant accumulation
[1]; patients, whole blood and plasma specimens
  binding to blood cells: bind reversibly to blood cells
[1]; urine
  route of elimination: eliminated unchanged in urine
Human blood cells [2]
  permanence of binding to blood cells: easily reversible
[3]; day 1 of dosing, dose cohorts 10-160 mg/m^2
  linearity of PK parameters (AUC) with dose level: linearity; also recorded: linear pharmacokinetic behavior
[3]; human, plasma, intravenous, following the first dose (day 1), across all dose levels 10-160 mg/m^2, read-out: plasma terminal half life (converted)
  half-life: ~10 h
[3]; infusion extended to 2 hours at 160 mg/m^2
  maximum plasma concentration (Cmax), effect of extending infusion: decreased
[4]; daily iv infusion x5 days, three week cycle, infusion up to six hours
  MTD: 360 mg/m^2
[4]; in vivo
  tolerability: well tolerated
Xenograft tumor
  suppression of xenograft tumor growth: potency in suppressing xenograft tumor growth with a broad therapeutic window
Malignant cells
  induction of apoptosis: rapidly induces selective apoptosis
Drug resistance in vitro
  drug resistance: no drug resistance has been observed
[5]; 10-160 mg/m^2
  longest period of stable disease to date: 24 weeks
[5]; 10-160 mg/m^2, 21 patients
  patients with disease stabilization of longer than / at least four months: three
  patients with stable disease (SD) at evaluation following two cycles: Six
[5]; 10-160 mg/m^2, 21 patients, RECIST after every 2 cycles
  objective tumor responses: No objective tumor responses
[5]; six patients with stable disease
  median duration of disease stabilization: 14 weeks
[6]
  effect on rRNA biogenesis: directly inhibits aberrant rRNA biogenesis
Human blood cells [7]; even at 50 μM
  saturability of binding to human blood cells: not saturable
Human blood cells [7]; human whole blood spiked with 1, 5, 10, and 50 μM
  binding to human blood cells: concentration dependent binding
[8]; 10, 20, 40, 80 and 160 mg/m^2, one or two hour iv infusion daily x5, three week cycle, 21 patients
  tolerability of doses: well tolerated
[8]; 10-160 mg/m^2
  drug-related serious adverse events: No drug-related serious adverse events
[8]; 10-160 mg/m^2, 21 patients
  grade 3 adverse events deemed related to Compound A: none
  grade 3 adverse events reported during the study: nine
[8]; all studied dose levels 10-160 mg/m^2
  severity of adverse events deemed at least possibly related to drug: grade 1 or 2
[8]; highest dose 160 mg/m^2, one or two hour infusion
  maximum tolerated dose (MTD): not yet been defined
[8]; one-hour infusion, 160 mg/m^2, resolved spontaneously upon completion of infusion
  cough during infusion: transient grade 1 cough
[8]; two hour infusion, 160 mg/m^2
  cough after extending the infusion duration: the cough resolved
[8]; up to 160 mg/m^2
  dose limiting toxicities: no observations to date of dose limiting toxicities

Source: patent US20070293485A1, “DRUG ADMINISTRATION METHODS” (priority 2006, published 2007)
